Assay results reported in patent US10087417B2, “Three-dimensional model of human cortex” (priority 2015, dated 2018).

What was measured:
Type in all cases: cell-based, human
[1] = system: neocortical neurons generated from hPSCs
neocortical organoids [2] = conditions: 3 μM cocaine 1 h every other day, days 32-44; measured day 44
Procedure: Endogenous ROS were measured by incubating neocortical organoids at day 44 with 100 μM 2′,7′-dichlorofluorescein diacetate (DCFH-DA) (Sigma-Aldrich) for 30 min with or without cocaine. The organoids were washed and dissolved in 1% Triton X-100 in PBS. Fluorescence for each sample was measured at an excitation wavelength of 485 nm, and an emission wavelength of 530 nm using a fluorescence microplate reader (Techan Genios). Protein concentration for each sample was determined using the BCA assay (Pierce BCA® Protein Assay Kits; Thermo Scientific), according to manufacturer's instructions. The level of endogenous ROS for each sample was determined by dividing the fluorescence units by the concentration of protein in the lysate.
Taking into consideration that cocaine concentrations in the fetal rat neocortex drop rapidly to negligible levels 1 h after cocaine administration (Lee et al, PLoS Med. 5:e117, 2008), and to create a physiologically-meaningful drug treatment schedule in vitro, the neocortical organoids were exposed to a pharmacologically-relevant dose of cocaine, 3 μM (Kindberg et al, Dis. Model Mech. 7:1397-1405, 2014), for 1 h every other day, from days 32-44. […] In the present model, post-mitotic neurons migrated toward the periphery of the NE. […] The percentage of BrdU^+ cells that expressed TUJ1 was increased by cocaine as compared to control (FIG. 5F and FIG. 6B).

neocortical organoids [3] = conditions: 3 μM cocaine days 32-44, days 51-52
Procedure: (§1) FIGS. 5A-5I is a series of panels showing neurodevelopmental effects of cocaine mediated by CYP3A5. FIG. 5A is an image showing RT-PCR analysis of expression of CYP3A family genes at different stages of neocortical organoid differentiation. “Neocortical organoids” indicates day 44 of differentiation. FIG. 5B is a graph showing ROS formation in the neocortical organoids in presence or absence of cocaine. Neocortical organoids were treated with 3 μM cocaine for 1 h every other day from day 32 to day 44, and endogenous ROS was measured at day 44. n=6. FIG. 5C is a graph showing effects of CYP3A5 or CYP3A43 knockdown on cocaine-induced ROS generation in H9 (dashed line, in the absence of cocaine). n=6. FIG. 5D is a graph showing proliferation of PAX6^+ NE cells of neocortical organoids in the presence or absence of cocaine in H9. Proliferation was examined at day 45 with 1 h BrdU (10 μM) incorporation. n=5. FIG. 5E is a graph showing effects of CYP3A5 or CYP3A43 knockdown on cocaine-induced inhibition of proliferation of PAX6^+ NE cells in H9 (dashed line, in the absence of cocaine). n=7. FIG. 5F is graph showing neuronal differentiation in neocortical organoids in the presence or absence of cocaine in H9. Neuronal differentiation was analyzed 24 h after 1 h BrdU (10 μM) treatment from day 51 to day 52. […] FIG. 5G is a graph showing effects of CYP3A5 or CYP3A43 knockdown on cocaine-induced premature neuronal differentiation in H9 (dashed line, in the absence of cocaine). n=7, FIG. 5H is a graph showing neural tissue development in the presence or absence of cocaine in H9. TUJ1^+ areas in the neocortical organoids were analyzed at day 66. TUJ1^+ areas expressed as percentages of total organoid area on day 24 are shown. n=6. FIG. 5I is a graph showing effects of CYP3A5 or CYP3A43 knockdown on cocaine-induced inhibition of neural tissue development in H9 (dashed line, in the absence of cocaine). n=6. Data are shown as means±SEM. Unpaired two-tailed Student's t-test for H9 and H14 in FIG. 5B, and for FIGS. 5D, 5F, and 5H. […]

[4] = system: PAX6+ NE cells of neocortical organoids; conditions: 3 μM cocaine 1 h every other day, days 32-44; day 45; H9 and H14
Procedure: as §1

neocortical organoids [5] = conditions: 3 μM cocaine days 32-44; day 66; H9 and H14
Procedure: Adherent cells in culture were fixed with 4% PFA for 10 min, followed by PBS wash. Neocortical organoids embedded in collagen gel were immersed in 4% PFA for 20 min and cryoprotected in 20% sucrose in PBS for 20 min. Cryostat sections (10 μm) were thaw-mounted onto gelatin-subbed slides. Cells and tissue sections were blocked with 0.2% Triton X-100 in PBS supplemented with 5% BSA and 10% goat serum. Cells were then incubated with primary antibodies in 0.2% Triton X-100 in PBS with 5% BSA and 5% goat serum: rabbit anti-BF1 (1:100; Abcam), rat anti-CD133 (1:100; Millipore), rat anti-CTIP2 (1:50; Abcam), rabbit anti-CUX1 (1:100; Santa Cruz Biotechnology), rabbit anti-EMX1 (1:50; Sigma), mouse anti-gamma-tubulin (1:500; Sigma), rat anti-HOXB4 (1:50; DSHB), mouse anti-Ki67 (1:100; BD Biosciences), rabbit anti-N-cadherin (1:100; Abcam), mouse anti-Nestin (1:50; R&D Systems), mouse anti-NKX2.1 (1:200; Chemicon), mouse anti-PAX6 (1:50; DSHB), rabbit anti-PAX6 (1:300; Covance), rabbit anti-PH3 (1:500; Cell Signaling Technology), mouse anti-Reelin (1:200; Millipore), rabbit anti-TBR1 (1:1000; Abcam), and mouse anti-TUJ1 (1:2,000; Promega). […] TUJ1+ neocortical areas were calculated by normalization of TUJ1+ areas in the neocortical organoids at day 66 (using only sections from the center of each organoid) to organoid size at day 24. […]

Structure (SMILES) | action potentials recorded in current clamp mode [1] | ROS generation in neocortical organoids (neocortical organoids [2]) | migration of BrdU-labeled TUJ1 neurons outwards to the periphery of the NE area (neocortical organoids [3]; BrdU 1 h pulse, 24 h chase) | percentage of BrdU+ cells that expressed TUJ1, compared to control (neocortical organoids [3]; H9 and H14) | proliferation of PAX6+ NE cells [4] | development of the TUJ1+ area (neocortical organoids [5])
NC1=N[C@H](O)[C@H]2[C@H]3O[C@]4(O)O[C@@H]([C@@H](O)[C@@]2(N1)[C@@H]4O)[C@]3(O)CO [tetrodotoxin] | blocked | – | – | – | – | –
COC(=O)[C@H]1[C@@H](OC(=O)c2ccccc2)C[C@@H]2CC[C@H]1N2C [cocaine] | – | ROS accumulation was observed | increased | increased | inhibited | significantly inhibited
